# Test results as given in patent US8907080B2, “Process for imparting water solubility or water dispersibility to hydrophobic cluster compound” (Daiso Co., Ltd., priority 2009, dated 2014).
# Assays:
# [1] = Solubilization of single-walled carbon nanotube; format: physicochemical; details: in water; estimated from absorbance at 500 nm
# Description: Preliminary dispersion was performed by dispersing 1.0 mg of a single-walled carbon nanotube (SWNT) (Carbon Nanotechnology, Inc.) in 0.5 mL of DMSO, and performing ultrasonic irradiation. An amount of 1.0 mL of AQUA β (DAISO Co., Ltd.) in a DMSO solution (2.0 mg/mL) was added and ultrasonic irradiation was further performed for 1 hour. The obtained dispersion was added to 1.5 mL of distilled water. To the dispersion, 35 mL of distilled water was further added and the solution was allowed to stand for one day to renature the AQUA β. It was observed by visual inspection that the solution was uniform at that point. Centrifugation (8,000 rpm, 60 minutes) was performed to recover the complex as a precipitate, the supernatant was removed, and the precipitate was redispersed in distilled water. This procedure was repeated 3 times for removal of uncombined polysaccharides and replacement of the solvent with water. Thus a solution in which the SWNT was dispersed in 5 mL of distilled water was obtained.
# From the absorbance at 500 nm (Abs500=0.575), the concentration of the dissolved SWNT is estimated at […]. […] The improvement in the dispersibility seems to be attributed to the fact that AQUA β has a higher proportion of side chains than sizofuran.
# [2] = Water solubilization of m-carborane by high speed vibration milling; format: physicochemical
# Description: m-carborane was mixed with AQUA β (DAISO Co., Ltd.) or sizofuran (SPG) (Mitsui Sugar Co., Ltd.) in the predetermined amounts shown in Table 3 below. The mixture was placed with an agate milling ball in an agate milling jar, and high speed milling was performed with a mixer mill (MM200, Retsch Co., Ltd.) at 25 Hz for 25 minutes. Next, 10,000 parts by weight of water was added to 1 part by weight of the mixture, and the mixture was stirred with a magnetic stirrer at room temperature for two days and further agitated with a vortex mixer for 2 hours. Centrifugation (25° C., 14,000 rpm, 20 minutes) was performed, and the supernatant was filtrated through a 0.45 μm membrane filter. The boron concentration of the filtrate was measured with an ICP atomic emission spectrometer for evaluation of the degree of water solubility.
Concentration of the dissolved SWNT [1] [µg/mL],Boron concentration relative to solution prepared using sizofuran [2] [times],Substance
2500,–,sizofiran
–,≥ 3,"β-1,3-1,6-D-glucan [AQUA β]"
